pEC50, pIC50: −log10 of the molar value. Where two headings read alike, the source gives them in different places.
What was measured:
[1] = biological target: HDAC6 (Homo sapiens (Human), UniProt Q9UBN7); assay: HDAC6 enzymatic activity assay; assay type: biochemical
Procedure: The inhibitory activity of the compounds of the present application against HDAC6 was evaluated by an enzymatic activity assay. HDAC6 (Abcam), test compounds, and a 20 µM substrate solution (Ac-GAK(Ac)-AMC) were each added to a 384-well plate, and the plate was incubated at 37° C. for 30 min. […] and […] were added, and the plate was incubated at room temperature for 15 min. […] IC50 was obtained by fitting using GraphPadPrism 7.0 software.

[2] = system: acetylation level of α-tubulin in HCT116 cells; assay: Assay on acetylation level of α-tubulin, HCT116 cells; assay type: cell-based; conditions: Homo sapiens, HCT-116, 6 h
Procedure: A375/HCT116/HCC827 cells at a logarithmic growth phase were taken, digested with a […] (trypsin), centrifuged, counted, and plated in a 96-well plate at an appropriate cell density (30,000 cells/well) at 100 µL/well, and an appropriate amount of PBS was added around the plate for water sealing. The next day, the cells were treated with the compounds at different concentrations (starting at 100 μM, 5-fold dilution, 9 concentration gradients). After 6 h, the medium was pipetted out and the cells were washed twice with 100 μL of PBST. The cells were then immobilized in 4% paraformaldehyde, and the plate was incubated at room temperature for 20 min. The stationary liquid was discarded and the cells were washed with PBST. 150 μL of special blocking buffer (containing 1% Triton-100) was added to each well for blocking at room temperature for 2 h, and the plate was washed with PBS to remove excess blocking buffer. α-tubulin (DM1A) mouse mAb and acetyl-α-tubulin (Lys40) (D20G3) XP rabbit mAb were diluted at a 1:2000 ratio with a blocking buffer containing 0.033% Triton-100. The dilutions were added to the 96-well plate and the plate was incubated overnight at 4° C. Meanwhile, a blank control group was set. The next day, the plate was washed twice with PBST. Secondary anti-mouse IgG (H+L) (DyLight™ 680 conjugate) and anti-rabbit IgG (H+L) (DyLight™ 800 conjugate) were diluted at a 1:2000 ratio with a blocking buffer containing 0.033% Triton-100. The dilutions were added to a 96-well plate and the plate was incubated at room temperature for 2 h. The plate was washed twice with PBST and once with PBS. Fluorescence signals at 700 nm and 800 nm were detected with a Li-COR Odyssey two-color near-infrared laser imager.

[3] = Pharmacokinetic test in mice (IV and PO); assay type: in vivo, BALB/c mice; conditions: for Cmax / AUC(0-inf) / AUC(0-t) / MRT inf / Vd / Tmax: BALB/c, mouse, plasma; for MRT inf: read-out: MRT(0-∞); for Vd: read-out: Vz
In short: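 BALB/c mice (3 per group) given single IV or intragastric doses; blood sampled orbitally at 0.25–24 h into K2-EDTA tubes for plasma. Concentrations measured by LC-MS/MS; parameters from non-compartmental analysis with linear-log trapezoidal method.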

[4] = Brain-to-blood drug concentration ratio of mice; assay type: in vivo; conditions: mouse, 5 mg/kg PO
In short: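 Mice (9/group) dosed once IV or PO; orbital blood into K2-EDTA tubes for plasma, with brain homogenate, processed by acetonitrile precipitation (propafenone internal standard) and measured by LC-MS/MS. Ratio taken as brain tissue concentration over plasma concentration at the same time point.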

[5] = brain, read-out: Brain drug concentration
[6] = plasma, read-out: Blood drug concentration

Sequence of HDAC6 (Q9UBN7 whole entry): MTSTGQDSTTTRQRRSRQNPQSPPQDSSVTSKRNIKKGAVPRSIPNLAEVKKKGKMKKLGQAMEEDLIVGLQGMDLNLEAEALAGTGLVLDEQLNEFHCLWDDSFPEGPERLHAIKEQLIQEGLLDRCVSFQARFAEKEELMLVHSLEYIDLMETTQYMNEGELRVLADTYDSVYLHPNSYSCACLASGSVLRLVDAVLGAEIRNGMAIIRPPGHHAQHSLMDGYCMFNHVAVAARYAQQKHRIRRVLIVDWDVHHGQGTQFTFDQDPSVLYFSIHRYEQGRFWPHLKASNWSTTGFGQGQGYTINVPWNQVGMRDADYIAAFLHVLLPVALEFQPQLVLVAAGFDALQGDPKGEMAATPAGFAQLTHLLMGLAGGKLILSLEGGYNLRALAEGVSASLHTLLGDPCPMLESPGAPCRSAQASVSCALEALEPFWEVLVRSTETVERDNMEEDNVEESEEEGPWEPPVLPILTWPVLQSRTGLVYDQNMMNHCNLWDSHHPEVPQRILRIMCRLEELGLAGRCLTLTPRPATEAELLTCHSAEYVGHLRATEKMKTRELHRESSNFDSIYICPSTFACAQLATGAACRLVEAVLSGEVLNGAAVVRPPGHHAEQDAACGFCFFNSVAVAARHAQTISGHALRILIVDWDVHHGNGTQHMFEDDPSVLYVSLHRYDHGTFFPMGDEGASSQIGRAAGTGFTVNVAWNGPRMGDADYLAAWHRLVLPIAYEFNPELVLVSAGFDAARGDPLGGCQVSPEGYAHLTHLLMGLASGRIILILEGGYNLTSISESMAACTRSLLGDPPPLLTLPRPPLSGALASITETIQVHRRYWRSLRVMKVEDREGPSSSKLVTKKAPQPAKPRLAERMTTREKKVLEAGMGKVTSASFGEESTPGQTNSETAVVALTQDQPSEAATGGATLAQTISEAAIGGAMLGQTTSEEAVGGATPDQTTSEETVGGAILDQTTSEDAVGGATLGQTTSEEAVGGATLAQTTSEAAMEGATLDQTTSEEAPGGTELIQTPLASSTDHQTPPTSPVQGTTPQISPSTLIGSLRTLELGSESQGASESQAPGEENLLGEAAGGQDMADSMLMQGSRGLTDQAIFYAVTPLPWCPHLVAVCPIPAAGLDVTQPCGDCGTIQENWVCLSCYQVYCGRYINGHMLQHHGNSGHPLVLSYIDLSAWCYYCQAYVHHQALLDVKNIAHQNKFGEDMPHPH

pIC50 [1]	pEC50 [2]	SMILES	Cmax ([3]; po, 5 mg/kg, read-out: C0/Cmax) [µM]	AUC(0-inf) ([3]; mice, IV 1 mg/kg) [µM·h]	AUC(0-t) ([3]; mice, IV 1 mg/kg) [µM·h]	Cmax ([3]; mice, IV 1 mg/kg (C0)) [µM]	MRT inf ([3]; mice, IV 1 mg/kg) [h]	Vd ([3]; mice, IV 1 mg/kg) [L/kg]	AUC(0-inf) ([3]; mice, PO 5 mg/kg) [µM·h]	AUC(0-t) ([3]; mice, PO 5 mg/kg) [µM·h]	Tmax ([3]; mice, PO 5 mg/kg) [h]	MRT inf ([3]; mice, PO 5 mg/kg) [h]	CLz ([3]; mice, IV 1 mg/kg) [mL/min/kg]	t½z ([3]; mice, IV 1 mg/kg) [h]	F ([3]; mice, PO 5 mg/kg) [%]	t½z ([3]; mice, PO 5 mg/kg) [h]	concentration at 2 h [4, 5] [ng/mL]	Kp at 2 h ([4]; brain/plasma)	concentration at 2 h [4, 6] [ng/mL]	also measured
6.80	6.21	O=S1(=O)c2cc(-c3nnc(C(F)F)o3)ccc2CN1[C@@H](c1ccc(F)cn1)[C@H](O)c1ccc(F)cn1 (single isomer, unassigned) [Compound 88j-A-B]	–	–	–	–	–	–	–	–	–	–	–	–	–	–	–	–	–	–
7.37	6.26	O=S1(=O)c2cc(-c3nnc(C(F)F)o3)ccc2CN1[C@@H](c1ccccn1)[C@H](O)c1ccc(F)cn1 (single isomer, unassigned) [Compound 84j-A]	–	–	–	–	–	–	–	–	–	–	–	–	–	–	–	–	–	–
7.25	6.61	CC(F)(F)C(=O)N[C@H]1[C@H](N2Cc3ccc(-c4nnc(C(F)F)o4)cc3S2(=O)=O)CCCC1(F)F [Compound 7]	–	–	–	–	–	–	–	–	–	–	–	–	–	–	–	–	–	–
7.01	6.45	O=C(N[C@@H]1CCCC[C@H]1N1Cc2ccc(-c3nnc(C(F)F)o3)cc2S1(=O)=O)C1CC1 [Compound 114]	–	–	–	–	–	–	–	–	–	–	–	–	–	–	–	–	–	–
7.37	6.58	CC(F)(F)C(=O)N[C@@H]1CCCC(F)(F)[C@H]1N1Cc2ccc(-c3nnc(C(F)F)o3)cc2S1(=O)=O [Compound 10]	4.77	3.68	3.48	1.72	2.5	1.5	21.5	19.9	0.5	3.3	8.3	1.9	117.1	2.1	338	0.17	2020	concentration at 8 h ([4]; brain, 8 h, read-out: Brain drug concentration): 80 ng/mL; Kp at 8 h ([4]; brain/plasma, 8 h): 0.29; concentration at 8 h ([4]; plasma, 8 h, read-out: Blood drug concentration): 277 ng/mL

SMILES	pIC50 [1]	pEC50 [2]	Cmax ([3]; po, 5 mg/kg, read-out: C0/Cmax) [µM]	AUC(0-inf) ([3]; mice, IV 1 mg/kg) [µM·h]	AUC(0-t) ([3]; mice, IV 1 mg/kg) [µM·h]	Cmax ([3]; mice, IV 1 mg/kg (C0)) [µM]	MRT inf ([3]; mice, IV 1 mg/kg) [h]	Vd ([3]; mice, IV 1 mg/kg) [L/kg]	AUC(0-inf) ([3]; mice, PO 5 mg/kg) [µM·h]	AUC(0-t) ([3]; mice, PO 5 mg/kg) [µM·h]	Tmax ([3]; mice, PO 5 mg/kg) [h]	MRT inf ([3]; mice, PO 5 mg/kg) [h]	CLz ([3]; mice, IV 1 mg/kg) [mL/min/kg]	t½z ([3]; mice, IV 1 mg/kg) [h]	F ([3]; mice, PO 5 mg/kg) [%]	t½z ([3]; mice, PO 5 mg/kg) [h]	concentration at 2 h [4, 5] [ng/mL]	Kp at 2 h ([4]; brain/plasma)	concentration at 2 h [4, 6] [ng/mL]	also measured
O=C(N[C@@H]1CCOC[C@H]1N1Cc2ccc(-c3nnc(C(F)F)o3)cc2S1(=O)=O)C(F)F [Compound 14]	–	6.91	7.27	4.27	4.22	3.15	1.5	0.928	15.2	14.8	0.5	1.88	8.4	1.277	71.27	1.48	42.8	0.03	1380	concentration at 1 h ([4]; brain, 1 h, read-out: Brain drug concentration): 85.6 ng/mL; Kp at 1 h ([4]; brain/plasma, 1 h): 0.03; concentration at 1 h ([4]; plasma, 1 h, read-out: Blood drug concentration): 2450 ng/mL

From patent publication US20250257060A1, “OXADIAZOLE COMPOUND, PHARMACEUTICAL COMPOSITION COMPRISING SAME, AND USE THEREOF” (SUZHOU GENHOUSE BIO CO., LTD., priority 2022, published 2025)
